# Reference: patent publication US6828315B1, “1-Amino triazoloc4,3-a! quinazoline-5-ones and/or -5-thiones inhibiting phosphodiesterase IV” (Warner-Lambert LLC, priority 1999, dated 2004)
# Counter-ions that a name gives are not always drawn.
row,SMILES,melting point
1,"CCN(CC)CCn1c(=O)c2cc(Br)ccc2n2c(N3CCCC3)nnc12 (as salt: HCl) [Compound 69, 7-Bromo-4-(2diethylamino-ethyl)-1-pyrrolidin-1-yl-4H-[1,2,4)triazolo[4,3-a]quinazolin-5-one]",215 °C
2,"O=c1c2cc(Br)ccc2n2c(N3CCCC3)nnc2n1Cc1ccc2c(c1)OCO2 (hydrate or solvate) [Compound 53, 4-Benzo[1,3]dioxol-5-ylmethyl-7-bromo-1-pyrrolidin-1-yl-4H-[1,2,4]triazolo[4,3-a]quinazolin-5-one]",194 °C
3,"O=c1nc2n(Cc3ccc4c(c3)OCO4)nc(N3CCCC3)n2c2ccc(Br)cc12 (hydrate or solvate) [Compound 149, 3-(benzo[1,3]dioxol-5-ylmethyl)-7-bromo-1-(pyrrolidin-1-yl)-3H-[1,2,4]triazolo[4,3-a]quinazolin-5-one]",234 °C
4,"O=c1c2ccccc2n2c(N3CCCCCC3)nnc2n1CC=Cc1ccccc1 [Compound 6, 1-Azepan-1-yl-4-(3-phenyl-allyl)-4H-[1,2,4]triazolo[4,3-a]quinazolin-5-one]",144 °C
5,"O=c1c2cc(Cl)ccc2n2c(N3CCCCCC3)nnc2n1Cc1ccccc1Cl [Compound 9, 1-(azepan-1-yl)-7-chloro-4-(2-chlorobenzyl)-4H-[1,2,4]triazolo[4,3-a]quinazolin-5-one]",160 to 162 °C
6,"O=c1c2cc(Cl)ccc2n2c(N3CCCCCC3)nnc2n1Cc1cccc(Cl)c1 [Compound 10, 1-(azepan-1-yl)-7-chloro-4-(3-chlorobenzyl)-4H-[1,2,4]triazolo[4,3-a]quinazolin-5-one]",157 °C
7,"O=c1c2cc(Cl)ccc2n2c(N3CCCCCC3)nnc2n1Cc1ccc(C(F)(F)F)cc1 [Compound 14, 1-(azepan-1-yl)-7chloro-4-(4-(trifluoromethyl)benzyl)-4H-[1,2,4]triazolo[4,3-a]quinazolin-5-one]",138 °C
8,"COc1ccccc1Cn1c(=O)c2cc(Cl)ccc2n2c(N3CCCCCC3)nnc12 [Compound 16, 1-(azepan-1-yl)-7-chloro-4-(2-methoxybenzyl)-4H-[1,2,4]triazolo[4,3-a]quinazolin-5-one]",98 to 100 °C
9,"COc1cccc(Cn2c(=O)c3cc(Cl)ccc3n3c(N4CCCCCC4)nnc23)c1 [Compound 17, 1-(azepan-1-yl)-7-chloro-4-(3-methoxybenzyl)-4H-[1,2,4]triazolo[4,3-a]quinazolin-5-one]",138 °C
10,"COc1ccc(Cn2c(=O)c3cc(Cl)ccc3n3c(N4CCCCCC4)nnc23)cc1 [Compound 18, 1-(azepan-1-yl)-7-chloro-4-(4-methoxybenzyl)-4H-[1,2,4]triazolo[4,3-a]quinazolin-5-one]",138 °C
11,"O=c1c2cc(Cl)ccc2n2c(N3CCCCCC3)nnc2n1Cc1ccccn1 [Compound 21, 1-(azepan-1-yl)-7-chloro-4-(2-pyridylmethyl)-4H-[1,2,4]triazolo[4,3-a]quinazolin-5-one]",152 °C
12,"O=c1c2cc(Cl)ccc2n2c(N3CCCCCC3)nnc2n1Cc1ccncc1 [Compound 23, 1-(azepan-1-yl)-7-chloro-4-(4-pyridylmethyl)-4H-[1,2,4]triazolo[4,3-a]quinazolin-5-one]",137 °C
13,"COc1ccc(CCn2c(=O)c3cc(Cl)ccc3n3c(N4CCCCCC4)nnc23)cc1 [Compound 25, 1-(azepan-1-yl)-7-chloro-4-[2-(4-methoxyphenyl)ethyl]-4H-[1,2,4]triazolo[4,3-a]quinazolin-5-one]",136 °C
14,"O=C(Cn1c(=O)c2cc(Cl)ccc2n2c(N3CCCCCC3)nnc12)c1ccccc1 [Compound 27, 1-Azepan-1-yl-7-chloro-4-(2-oxo-2-phenyl-ethyl)-4H-[1,2,4]triazolo[4,3-a]quinazolin-5-one]",105 to 107 °C
15,"O=C(Cn1c(=O)c2cc(Cl)ccc2n2c(N3CCCCCC3)nnc12)c1ccc(Cl)cc1 [Compound 29, 1-(azepan-1-yl)-7-chloro-4[2-(4-chlorophenyl)-2-oxoethyl]-4H-[1,2,4]triazolo[4,3-a]quinazolin-5-one]",190 °C
16,"COC(=O)c1cc(C(=O)Cn2c(=O)c3cc(Cl)ccc3n3c(N4CCCCCC4)nnc23)ccc1OC [Compound 30, 5-[(1-(azepan-1-yl)-7-chloro-5-oxo-5H-[1,2,4]triazolo[4,3-a]-quinazolin-4-yl)acetyl]-2-methoxybenzoic acid methyl ester]",140 °C
17,"O=c1c2cc(Cl)ccc2n2c(N3CCCC3)nnc2n1Cc1cccnc1 [Compound 31, 7-Chloro-4-pyridin-3-ylmethyl-1-pyrrolidin-1-yl-4H-[1,2,4]triazolo[4,3-a]quinazolin-5-one]",176 °C
18,"O=c1c2cc(Br)ccc2n2c(N3CCCCCC3)nnc2n1Cc1ccc(F)cc1 [Compound 33, 1-Azepan-1-yl-7-bromo-4-(4-fluoro-benzyl)-4H-[1,2,4]triazolo[4,3-a]quinazolin-5-one]",158 °C
19,"O=c1c2cc(Br)ccc2n2c(N3CCCCCC3)nnc2n1Cc1cccnc1 [Compound 36, 1-(azepan-1-yl)-7-bromo-4-(3-pyridinylmethyl)-4H-[1,2,4]triazolo[4,3-a]quinazolin-5-one]",180 °C
20,"O=c1c2cc(Br)ccc2n2c(N3CCCCCC3)nnc2n1CC=Cc1ccc(Cl)cc1 [Compound 38, 1-Azepan-1-yl-7-bromo-4-[3-(4-chloro-phenyl)-allyl]-4H-[1,2,4]triazolo[4,3-a]quinazolin-5-one]",176 °C
21,"COc1ccc(C=CCn2c(=O)c3cc(Br)ccc3n3c(N4CCCCCC4)nnc23)cc1 [Compound 39, 1-Azepan-1-yl-7-bromo-4-[3-(4-methoxy-phenyl)-allyl]-4H-[1,2,4]triazolo[4,3-a]quinazolin-5-one]",129 °C
22,"N#Cc1cccc(Cn2c(=O)c3cc(Br)ccc3n3c(N4CCCC4)nnc23)c1 [Compound 45, 3-(7-Bromo-5-oxo-1-pyrrolidin-1-yl-5H-[1,2,4]triazolo[4,3-a]quinazolin-4-ylmethyl)benzonitrile]",206 °C
23,"COc1cc(Cn2c(=O)c3cc(Br)ccc3n3c(N4CCCC4)nnc23)cc(OC)c1OC [Compound 55, 7-Bromo-1-pyrrolidin-1-yl-4-(3,4,5-trimethoxy-benzyl)-4H-[1,2,4]triazolo[4,3-a]quinazolin-5-one]",141 to 143 °C
24,"O=C(O)Cc1ccc(Cn2c(=O)c3cc(Br)ccc3n3c(N4CCCC4)nnc23)cc1 [Compound 56, [4-(7-Bromo-5-oxo-1-pyrrolidin-1-yl-5H-[1,2,4]triazolo[4,3-a]quinazolin-4-ylmethyl)-phenyl]-acetic acid]",260 °C
25,"O=c1c2cc(Br)ccc2n2c(N3CCCC3)nnc2n1CC=Cc1ccccc1 [Compound 58, 7-Bromo-4-(3-phenyl-allyl)-1-pyrrolidin-1-yl-4H-[1,2,4]triazolo[4,3-a]quinazolin-5-one]",110 °C
26,"O=c1c2cc(Br)ccc2n2c(N3CCCC3)nnc2n1Cc1c[nH]cn1 [Compound 63, 7-Bromo-4-(1H-imidazol-4-ylmethyl)-1-pyrrolidin-1-yl-4H-[1,2,4]triazolo[4,3-a]quinazolin-5-one]",290 °C (dec.)
27,"Cc1noc(C)c1Cn1c(=O)c2cc(Br)ccc2n2c(N3CCCC3)nnc12 [Compound 64, 7-Bromo-4-(3,5-dimethyl-isoxazol-4-ylmethyl)-1-pyrrolidin-1-yl-4H-[1,2,4]triazolo[4,3-a]quinazolin-5-one]",221 °C
